According to the supplement of paper PMC11451515:

Assays:
Conditions in all cases: 48 h
NOMO1 [1] = test: cell viability relative to DMSO control; higher = less cytotoxic
In short: (§1)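 NOMO1, SEM and P12-Ichikawa leukemia cells spent at least four passages adapting to each medium before use. They were seeded at 500 cells/well (NOMO1, SEM) or 1000 cells/well (P12-Ichikawa) in 5 μl in 1536-well plates and pin-dosed with library compounds in DMSO at 11 threefold steps from 47 μM down to 0.79 nM. After 48 h at 37°C, CellTiter-Glo One luminescence was read. Viability is reported as a percentage of the DMSO wells on each plate, with cell-free wells as background.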

P12-Ichikawa [2] = test: as above
In short: as §1

SEM cells [3] = test: as above
In short: as §1

NOMO1 [4] = test: AUC of viability dose-response curve (% viability x log10 dose units); higher = less sensitive
In short: (§2)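 Medium-adapted leukemia cells in 1536-well plates, at 500 or 1000 cells/well, were incubated for 48 h at 37°C with library compounds in DMSO at 11 threefold doses from 47 μM to 0.79 nM. CellTiter-Glo One luminescence normalised per plate to DMSO and cell-free wells was fitted with a four-parameter log-logistic model over log10 doses. Area under the curve was integrated from this fit by trapezoidal rule, with curves beyond full viability scaled and failed quality-control curves removed.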

P12-Ichikawa [5] = test: as above
In short: as §2

SEM cells [6] = test: as above
In short: as §2

C[C@@H]1C[C@H]2[C@@H]3\C=C(C)/C4=C/C5=C(C[C@]4(C)[C@H]3[C@@H](O)C[C@]2(C)[C@@]1(O)C(=O)COC(C)=O)C=N[N]5C6=CC=CC=C6
cell viability [%]
Conditions | NOMO1 [1] | P12-Ichikawa [2] | SEM cells [3]
HPLM + 10% dialyzed FBS, 0.000781 µM | 116 | 111 | 134
HPLM + 10% dialyzed FBS, 0.00234 µM | 123 | 107 | 120
HPLM + 10% dialyzed FBS, 0.00702 µM | 114 | 99.2 | 111
HPLM + 10% dialyzed FBS, 0.0211 µM | 113 | 91.8 | 104
HPLM + 10% dialyzed FBS, 0.0632 µM | 123 | 67.8 | 85.4
HPLM + 10% dialyzed FBS, 0.19 µM | 106 | 61.6 | 67.8
HPLM + 10% dialyzed FBS, 0.569 µM | 106 | 58.1 | 66.4
HPLM + 10% dialyzed FBS, 1.71 µM | 106 | 58.7 | 56.8
HPLM + 10% dialyzed FBS, 5.12 µM | 104 | 59.6 | 59.7
HPLM + 10% dialyzed FBS, 15.4 µM | 108 | 51.4 | 59.9
HPLM + 10% dialyzed FBS, 46.1 µM | 90 | 55.8 | 58.8
RPMI 5 mM glucose + 10% FBS, 0.000781 µM | – | 123 | –
RPMI 5 mM glucose + 10% FBS, 0.00234 µM | – | 127 | –
RPMI 5 mM glucose + 10% FBS, 0.00702 µM | – | 98 | –
RPMI 5 mM glucose + 10% FBS, 0.0211 µM | – | 85.1 | –
RPMI 5 mM glucose + 10% FBS, 0.0632 µM | – | 62.3 | –
RPMI 5 mM glucose + 10% FBS, 0.19 µM | – | 54.6 | –
RPMI 5 mM glucose + 10% FBS, 0.569 µM | – | 45.6 | –
RPMI 5 mM glucose + 10% FBS, 1.71 µM | – | 51.5 | –
RPMI 5 mM glucose + 10% FBS, 5.12 µM | – | 49.2 | –
RPMI 5 mM glucose + 10% FBS, 15.4 µM | – | 46.5 | –
RPMI 5 mM glucose + 10% FBS, 46.1 µM | – | 46.9 | –
RPMI 5 mM glucose + 10% dialyzed FBS, 0.000781 µM | 127 | 114 | 143
RPMI 5 mM glucose + 10% dialyzed FBS, 0.00234 µM | 121 | 99.7 | 117
RPMI 5 mM glucose + 10% dialyzed FBS, 0.00702 µM | 110 | 91.7 | 116
RPMI 5 mM glucose + 10% dialyzed FBS, 0.0211 µM | 122 | 72.2 | 97.7
RPMI 5 mM glucose + 10% dialyzed FBS, 0.0632 µM | 125 | 53.3 | 75
RPMI 5 mM glucose + 10% dialyzed FBS, 0.19 µM | 114 | 44.1 | 63.1
RPMI 5 mM glucose + 10% dialyzed FBS, 0.569 µM | 109 | 38 | 52.8
RPMI 5 mM glucose + 10% dialyzed FBS, 1.71 µM | 108 | 39.5 | 54.9
RPMI 5 mM glucose + 10% dialyzed FBS, 5.12 µM | 104 | 38.7 | 46.1
RPMI 5 mM glucose + 10% dialyzed FBS, 15.4 µM | 109 | 38.1 | 43.3
RPMI 5 mM glucose + 10% dialyzed FBS, 46.1 µM | 100 | 32.9 | 35.5

AUC of viability dose-response curve
Conditions | NOMO1 [4] | P12-Ichikawa [5] | SEM cells [6]
HPLM + 10% dialyzed FBS | 442 | 323 | 304
RPMI 5 mM glucose + 10% FBS | 411 | 264 | 277
RPMI 5 mM glucose + 10% dialyzed FBS | 449 | 251 | 258

Cc1cc(Nc2ncc(Cl)c(Nc3ccccc3[S+](=O)([O-])C(C)C)n2)c(OC(C)C)cc1C1CCNCC1
cell viability [%]
Conditions | NOMO1 [1] | P12-Ichikawa [2] | SEM cells [3]
HPLM + 10% dialyzed FBS, 0.000781 µM | – | 111 | 115
HPLM + 10% dialyzed FBS, 0.00234 µM | – | 113 | 114
HPLM + 10% dialyzed FBS, 0.00702 µM | – | 110 | 119
HPLM + 10% dialyzed FBS, 0.0211 µM | – | 117 | 123
HPLM + 10% dialyzed FBS, 0.0632 µM | – | 112 | 120
HPLM + 10% dialyzed FBS, 0.19 µM | – | 115 | 109
HPLM + 10% dialyzed FBS, 0.569 µM | – | 101 | 96
HPLM + 10% dialyzed FBS, 1.71 µM | – | 105 | 88.1
HPLM + 10% dialyzed FBS, 5.12 µM | – | 105 | 69
HPLM + 10% dialyzed FBS, 15.4 µM | – | 90.6 | 48.3
HPLM + 10% dialyzed FBS, 46.1 µM | – | 30.2 | 5.59
RPMI 5 mM glucose + 10% FBS, 0.000781 µM | 126 | 111 | 112
RPMI 5 mM glucose + 10% FBS, 0.00234 µM | 113 | 104 | 114
RPMI 5 mM glucose + 10% FBS, 0.00702 µM | 112 | 113 | 103
RPMI 5 mM glucose + 10% FBS, 0.0211 µM | 132 | 118 | 118
RPMI 5 mM glucose + 10% FBS, 0.0632 µM | 126 | 125 | 119
RPMI 5 mM glucose + 10% FBS, 0.19 µM | 127 | 112 | 101
RPMI 5 mM glucose + 10% FBS, 0.569 µM | 115 | 108 | 94.2
RPMI 5 mM glucose + 10% FBS, 1.71 µM | 97 | 96.1 | 101
RPMI 5 mM glucose + 10% FBS, 5.12 µM | 76.8 | 94.1 | 65.3
RPMI 5 mM glucose + 10% FBS, 15.4 µM | 54.1 | 69.9 | 50.5
RPMI 5 mM glucose + 10% FBS, 46.1 µM | 6.06 | 5.5 | 5.71
RPMI 5 mM glucose + 10% dialyzed FBS, 0.000781 µM | 127 | 117 | 125
RPMI 5 mM glucose + 10% dialyzed FBS, 0.00234 µM | 120 | 117 | 121
RPMI 5 mM glucose + 10% dialyzed FBS, 0.00702 µM | 112 | 118 | 104
RPMI 5 mM glucose + 10% dialyzed FBS, 0.0211 µM | 117 | 116 | 146
RPMI 5 mM glucose + 10% dialyzed FBS, 0.0632 µM | 122 | 115 | 142
RPMI 5 mM glucose + 10% dialyzed FBS, 0.19 µM | 109 | 117 | 121
RPMI 5 mM glucose + 10% dialyzed FBS, 0.569 µM | 105 | 111 | 110
RPMI 5 mM glucose + 10% dialyzed FBS, 1.71 µM | 114 | 113 | 100
RPMI 5 mM glucose + 10% dialyzed FBS, 5.12 µM | 67 | 107 | 80.9
RPMI 5 mM glucose + 10% dialyzed FBS, 15.4 µM | 52 | 89.3 | 52.2
RPMI 5 mM glucose + 10% dialyzed FBS, 46.1 µM | 4.03 | 10.5 | 6.92

AUC of viability dose-response curve
Conditions | NOMO1 [4] | P12-Ichikawa [5] | SEM cells [6]
HPLM + 10% dialyzed FBS | 396 | 449 | 380
RPMI 5 mM glucose + 10% FBS | 395 | 425 | 393
RPMI 5 mM glucose + 10% dialyzed FBS | 395 | 442 | 392

OCc1ccccc1O[C@@H]1O[C@H](CO)[C@@H](O)[C@H](O)[C@H]1O
Conditions | cell viability [%]
NOMO1 [1], RPMI 5 mM glucose + 10% FBS, 0.000781 µM | 120
NOMO1 [1], RPMI 5 mM glucose + 10% FBS, 0.00234 µM | 116
NOMO1 [1], RPMI 5 mM glucose + 10% FBS, 0.00702 µM | 139
NOMO1 [1], RPMI 5 mM glucose + 10% FBS, 0.0211 µM | 128
NOMO1 [1], RPMI 5 mM glucose + 10% FBS, 0.0632 µM | 126
NOMO1 [1], RPMI 5 mM glucose + 10% FBS, 0.19 µM | 139
NOMO1 [1], RPMI 5 mM glucose + 10% FBS, 0.569 µM | 138
NOMO1 [1], RPMI 5 mM glucose + 10% FBS, 1.71 µM | 127
NOMO1 [1], RPMI 5 mM glucose + 10% FBS, 5.12 µM | 129
NOMO1 [1], RPMI 5 mM glucose + 10% FBS, 15.4 µM | 106
NOMO1 [1], RPMI 5 mM glucose + 10% FBS, 46.1 µM | 98.7
SEM cells [3], RPMI 5 mM glucose + 10% dialyzed FBS, 0.000781 µM | 101
SEM cells [3], RPMI 5 mM glucose + 10% dialyzed FBS, 0.00234 µM | 121
SEM cells [3], RPMI 5 mM glucose + 10% dialyzed FBS, 0.00702 µM | 118
SEM cells [3], RPMI 5 mM glucose + 10% dialyzed FBS, 0.0211 µM | 121
SEM cells [3], RPMI 5 mM glucose + 10% dialyzed FBS, 0.0632 µM | 136
SEM cells [3], RPMI 5 mM glucose + 10% dialyzed FBS, 0.19 µM | 148
SEM cells [3], RPMI 5 mM glucose + 10% dialyzed FBS, 0.569 µM | 121
SEM cells [3], RPMI 5 mM glucose + 10% dialyzed FBS, 1.71 µM | 117
SEM cells [3], RPMI 5 mM glucose + 10% dialyzed FBS, 5.12 µM | 97.5
SEM cells [3], RPMI 5 mM glucose + 10% dialyzed FBS, 15.4 µM | 61.8
SEM cells [3], RPMI 5 mM glucose + 10% dialyzed FBS, 46.1 µM | 48.8

AUC of viability dose-response curve
Conditions | NOMO1 [4] | P12-Ichikawa [5] | SEM cells [6]
HPLM + 10% dialyzed FBS | 447 | 464 | 430
RPMI 5 mM glucose + 10% FBS | 463 | 448 | 372
RPMI 5 mM glucose + 10% dialyzed FBS | 458 | 459 | 426
